# Measurements as given in US20230139171A1 (SITA Information Networking Computing UK Limited, priority 2019, published 2023).
# Key:
# Type in all cases: cell-based
# [1] = target: T1, human TLR9 (Homo sapiens, UniProt Q9NR96); assay: TLR9 inhibition reporter assay (HEK-Blue cells, SEAP reporter, ODN2006 stimulation); conditions: HEK-Blue cells overexpressing human TLR9, SEAP reporter, ODN2006 5 nM
# T1 construct: host or cells: HEK-Blue cells
# T1 sequence (Q9NR96 26-1032): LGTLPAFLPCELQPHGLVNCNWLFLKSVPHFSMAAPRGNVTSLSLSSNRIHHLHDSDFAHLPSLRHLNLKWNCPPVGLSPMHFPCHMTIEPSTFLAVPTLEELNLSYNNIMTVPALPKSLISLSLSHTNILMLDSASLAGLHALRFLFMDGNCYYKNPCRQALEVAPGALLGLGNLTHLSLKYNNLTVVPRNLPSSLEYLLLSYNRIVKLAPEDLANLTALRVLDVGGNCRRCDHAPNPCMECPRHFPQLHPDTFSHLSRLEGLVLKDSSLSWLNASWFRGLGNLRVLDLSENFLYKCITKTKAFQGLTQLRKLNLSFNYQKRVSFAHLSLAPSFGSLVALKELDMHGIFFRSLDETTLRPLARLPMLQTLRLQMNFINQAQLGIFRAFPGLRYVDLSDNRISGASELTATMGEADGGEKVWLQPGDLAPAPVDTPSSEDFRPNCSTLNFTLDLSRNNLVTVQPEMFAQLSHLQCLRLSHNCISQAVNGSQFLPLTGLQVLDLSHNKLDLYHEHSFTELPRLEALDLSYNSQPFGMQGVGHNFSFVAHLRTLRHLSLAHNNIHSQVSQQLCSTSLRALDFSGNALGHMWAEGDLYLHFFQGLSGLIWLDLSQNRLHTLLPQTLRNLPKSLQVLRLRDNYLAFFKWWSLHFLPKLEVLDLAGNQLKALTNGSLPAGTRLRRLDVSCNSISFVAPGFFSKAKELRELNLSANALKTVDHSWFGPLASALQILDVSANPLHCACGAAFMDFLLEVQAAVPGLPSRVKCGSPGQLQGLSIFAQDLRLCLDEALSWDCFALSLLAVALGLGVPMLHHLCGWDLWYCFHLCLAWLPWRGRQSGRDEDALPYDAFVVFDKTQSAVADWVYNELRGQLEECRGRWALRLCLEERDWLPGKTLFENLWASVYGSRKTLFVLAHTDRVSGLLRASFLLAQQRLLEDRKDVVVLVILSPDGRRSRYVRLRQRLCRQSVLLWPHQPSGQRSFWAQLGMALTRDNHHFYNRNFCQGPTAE
# Method: TLR7/8/9 Inhibition Reporter Assays
# HEK-Blue™-cells (Invivogen) overexpressing human TLR7, TLR8 or TLR9 receptors were used for screening inhibitors of these receptors using an inducible SEAP (secreted embryonic alkaline phosphatase) reporter gene under the control of the IFN-β minimal promoter fused to five NF-κB and AP-1-binding sites. Briefly, cells are seeded into Greiner 384 well plates (15000 cells per well for TLR7, 20,000 for TLR8 and 25,000 for TLR9) and then treated with test compounds in DMSO to yield a final dose response concentration range of 0.05 nM-50 μM. After a 30 minute compound pre-treatment at room temperature, the cells are then stimulated with a TLR7 ligand (gardiquimod at a final concentration of 7.5 μM), TLR8 ligand (R848 at a final concentration of 15.9 μM) or TLR9 ligand (ODN2006 at a final concentration of 5 nM) to activate NF-κB and AP-1 which induce the production of SEAP. After a 22 hour incubation at 37° C., 5% CO2, SEAP levels are determined with the addition of HEK-Blue™ Detection reagent (Invivogen), a cell culture medium that allows for detection of SEAP, according to manufacturer's specifications. The percent inhibition is determined as the % reduction in the HEK-Blue signal present in wells treated with agonist plus DMSO alone compared to wells treated with a known inhibitor.
# [2] = target: T2, human TLR7 (Homo sapiens, UniProt Q9NYK1); assay: TLR7 inhibition reporter assay (HEK-Blue cells, SEAP reporter, gardiquimod stimulation); conditions: HEK-Blue cells overexpressing human TLR7, SEAP reporter, gardiquimod 7.5 μM; read-out: TLR7 IC50
# T2 construct: host or cells: HEK-Blue cells
# T2 sequence (Q9NYK1 27-1049): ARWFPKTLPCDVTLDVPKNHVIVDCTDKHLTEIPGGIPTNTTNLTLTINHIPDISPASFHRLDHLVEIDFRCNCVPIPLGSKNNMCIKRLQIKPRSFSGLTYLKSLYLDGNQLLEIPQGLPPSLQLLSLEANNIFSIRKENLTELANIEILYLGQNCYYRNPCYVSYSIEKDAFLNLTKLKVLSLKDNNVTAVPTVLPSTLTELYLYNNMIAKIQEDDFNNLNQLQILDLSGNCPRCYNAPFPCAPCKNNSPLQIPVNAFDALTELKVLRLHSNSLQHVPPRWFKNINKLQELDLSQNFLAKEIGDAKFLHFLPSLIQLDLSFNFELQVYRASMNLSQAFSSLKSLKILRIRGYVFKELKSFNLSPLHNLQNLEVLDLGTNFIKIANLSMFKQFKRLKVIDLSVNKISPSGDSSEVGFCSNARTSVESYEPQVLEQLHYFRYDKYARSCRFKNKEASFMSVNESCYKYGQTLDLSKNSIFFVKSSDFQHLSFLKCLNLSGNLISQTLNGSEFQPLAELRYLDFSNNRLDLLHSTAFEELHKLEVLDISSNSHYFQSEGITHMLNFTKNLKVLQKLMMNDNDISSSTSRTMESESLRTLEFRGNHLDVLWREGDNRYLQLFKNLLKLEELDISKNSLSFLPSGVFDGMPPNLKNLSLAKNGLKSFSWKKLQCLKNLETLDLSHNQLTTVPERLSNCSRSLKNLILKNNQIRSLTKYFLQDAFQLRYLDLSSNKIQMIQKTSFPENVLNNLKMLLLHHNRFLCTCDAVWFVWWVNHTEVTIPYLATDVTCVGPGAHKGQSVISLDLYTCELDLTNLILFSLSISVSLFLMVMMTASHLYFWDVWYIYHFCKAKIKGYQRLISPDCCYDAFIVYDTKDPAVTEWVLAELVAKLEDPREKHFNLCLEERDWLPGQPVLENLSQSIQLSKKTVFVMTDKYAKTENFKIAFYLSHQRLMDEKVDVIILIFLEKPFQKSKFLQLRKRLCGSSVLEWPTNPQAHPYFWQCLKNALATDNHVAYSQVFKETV
# Outline: (§1)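 Human TLR7/8/9 HEK-Blue reporter lines; dose range 0.05 nM–50 μM; 30 min RT preincubation; stimulus gardiquimod 7.5 μM / R848 15.9 μM / ODN2006 5 nM respectively; 22 h, 37 °C; SEAP detected colorimetrically.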
# [3] = target: T3, human TLR8 (Homo sapiens, UniProt Q9NR97); assay: TLR8 inhibition reporter assay (HEK-Blue cells, SEAP reporter, R848 stimulation); conditions: HEK-Blue cells overexpressing human TLR8, SEAP reporter, R848 15.9 μM; read-out: TLR8 IC50
# T3 construct: host or cells: HEK-Blue cells
# T3 sequence (Q9NR97 27-1041): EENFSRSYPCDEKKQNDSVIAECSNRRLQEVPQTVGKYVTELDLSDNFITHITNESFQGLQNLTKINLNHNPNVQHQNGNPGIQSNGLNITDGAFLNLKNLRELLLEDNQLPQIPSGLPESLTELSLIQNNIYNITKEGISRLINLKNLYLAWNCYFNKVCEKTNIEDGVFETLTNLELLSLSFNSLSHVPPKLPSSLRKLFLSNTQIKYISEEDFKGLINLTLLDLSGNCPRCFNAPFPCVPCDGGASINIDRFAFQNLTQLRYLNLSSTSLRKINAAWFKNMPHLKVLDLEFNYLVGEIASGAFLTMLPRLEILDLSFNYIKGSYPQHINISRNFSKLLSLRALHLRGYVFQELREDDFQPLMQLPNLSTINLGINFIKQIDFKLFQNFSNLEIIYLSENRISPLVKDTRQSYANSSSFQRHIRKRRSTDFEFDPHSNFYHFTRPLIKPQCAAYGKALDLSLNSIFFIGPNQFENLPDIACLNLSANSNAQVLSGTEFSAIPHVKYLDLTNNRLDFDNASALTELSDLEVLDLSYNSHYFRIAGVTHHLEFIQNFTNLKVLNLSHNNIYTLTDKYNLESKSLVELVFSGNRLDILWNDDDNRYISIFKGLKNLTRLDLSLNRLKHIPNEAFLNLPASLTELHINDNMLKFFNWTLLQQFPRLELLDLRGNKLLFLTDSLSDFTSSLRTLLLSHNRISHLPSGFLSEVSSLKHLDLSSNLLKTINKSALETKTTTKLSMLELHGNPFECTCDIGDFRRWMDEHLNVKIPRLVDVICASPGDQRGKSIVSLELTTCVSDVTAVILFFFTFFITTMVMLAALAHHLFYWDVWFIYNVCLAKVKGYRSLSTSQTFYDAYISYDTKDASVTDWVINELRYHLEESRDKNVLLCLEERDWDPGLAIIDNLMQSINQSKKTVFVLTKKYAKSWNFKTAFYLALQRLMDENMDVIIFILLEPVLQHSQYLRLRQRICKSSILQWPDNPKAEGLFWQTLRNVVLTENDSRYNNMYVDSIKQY
# Outline: as §1
SMILES,IC50 [1],IC50 [2],IC50 [3]
"CCN(C)C1CCC(c2nc3c(C(C)C)c(-c4cc(OC)c5ncnn5c4)[nH]c3s2)CC1 (single isomer, unassigned) [Example 72, N-ethyl-4-(6-isopropyl-5-(8-methoxy-[1,2,4]triazolo[1,5-a]pyridin-6-yl)-4H-pyrrolo[3,2-d]thiazol-2-yl)-N-methylcyclohexan-1-amine]",7220 nM,1.23 nM,4.75 nM
"CCN(C)C1CCC(c2nc3c(C(C)C)c(-c4cc(OC)c5ncnn5c4)[nH]c3s2)CC1 (single isomer, unassigned) [Example 73, N-ethyl-4-(6-isopropyl-5-(8-methoxy-[1,2,4]triazolo[1,5-a]pyridin-6-yl)-4H-pyrrolo[3,2-d]thiazol-2-yl)-N-methylcyclohexan-1-amine]",4280 nM,0.96 nM,12.7 nM
"CNC1CCC(c2nc3c(C(C)C)c(-c4cc(OC)c5ncnn5c4)[nH]c3s2)CC1 (single isomer, unassigned) [Example 74, 4-(6-isopropyl-5-(8-methoxy-[1,2,4]triazolo[1,5-a]pyridin-6-yl)-4H-pyrrolo[3,2-d]thiazol-2-yl)-N-methylcyclohexan-1-amine]",1910 nM,0.71 nM,3.44 nM
"CNC1CCC(c2nc3c(C(C)C)c(-c4cc(OC)c5ncnn5c4)[nH]c3s2)CC1 (single isomer, unassigned) [Example 75, 4-(6-isopropyl-5-(8-methoxy-[1,2,4]triazolo[1,5-a]pyridin-6-yl)-4H-pyrrolo[3,2-d]thiazol-2-yl)-N-methylcyclohexan-1-amine]",3390 nM,0.89 nM,7.55 nM
"COc1cc(-c2[nH]c3sc(C4CCC(N5CCC5)CC4)nc3c2C(C)C)cn2ncnc12 (single isomer, unassigned) [Example 76, 2-(4-(azetidin-1-yl)cyclohexyl)-6-isopropyl-5-(8-methoxy-[1,2,4]triazolo[1,5-a]pyridin-6-yl)-4H-pyrrolo[3,2-d]thiazole]",1450 nM,0.9 nM,2.62 nM
"COc1cc(-c2[nH]c3sc(C4CCC(N5CCC5)CC4)nc3c2C(C)C)cn2ncnc12 (single isomer, unassigned) [Example 77, 2-(4-(azetidin-1-yl)cyclohexyl)-6-isopropyl-5-(8-methoxy-[1,2,4]triazolo[1,5-a]pyridin-6-yl)-4H-pyrrolo[3,2-d]thiazole]",3270 nM,2.03 nM,21.5 nM
"COc1cc(-c2[nH]c3sc(C4CCC(NC(C)C)CC4)nc3c2C(C)C)cn2ncnc12 (single isomer, unassigned) [Example 78, N-isopropyl-4-(6-isopropyl-5-(8-methoxy-[1,2,4]triazolo[1,5-a]pyridin-6-yl)-4H-pyrrolo[3,2-d]thiazol-2-yl)cyclohexan-1-amine]",2870 nM,0.59 nM,1.64 nM
"COc1cc(-c2[nH]c3sc(C4CCC(NC(C)C)CC4)nc3c2C(C)C)cn2ncnc12 (single isomer, unassigned) [Example 79, N-isopropyl-4-(6-isopropyl-5-(8-methoxy-[1,2,4]triazolo[1,5-a]pyridin-6-yl)-4H-pyrrolo[3,2-d]thiazol-2-yl)cyclohexan-1-amine]",4120 nM,2.29 nM,9.23 nM
"COc1cc(-c2[nH]c3sc(C4CCC(N5CCS(=O)(=O)CC5)CC4)nc3c2C(C)C)cn2ncnc12 (single isomer, unassigned) [Example 82, 4-(4-(6-isopropyl-5-(8-methoxy-[1,2,4]triazolo[1,5-a]pyridin-6-yl)-4H-pyrrolo[3,2-d]thiazol-2-yl)cyclohexyl)thiomorpholine 1,1-dioxide]",> 50000 nM,4.69 nM,43.6 nM
